Assays:
cleaved Notch2 (NICD2) = experiment: Western blot for cleaved, active Notch2 (NICD2) in cultured limb-bud derived MSCs; format: cell-based, mouse; conditions: DAPT 1 um, cultured overnight, vs absence of DAPT
Procedure: Total protein was isolated from either whole mouse limb-bud tissue or cultured limb-bud derived MSCs using Golden lysis buffer. The cultured limb-bud derived MSCs were plated at the density of 6×10^6 cells in 10 cm dishes and cultured overnight in 10% FBS DMEM media both in the presence and absence of DAPT (1 um). Protein samples (˜100 μg) from each isolation were subsequently separated on 10% SDS-polyacrylamide and transferred to a PVDF membrane. NICD1 and NICD2 cleaved proteins were detected using the bTAN 20 (Notch1) and C651.6DdHN (Notch2) primary antibodies (0.4 ug/ml) and then further probed with appropriate secondary antibody (1:3000). Anti-β-actin antibody (Sigma; St. Louis, Mo.) was used as a control for equal protein loading. Immunoblots were detected using Supersignal west femto maximum sensitivity substrate (Pierce; Rockford, Ill.).
To determine which Notch receptor is active in the limb-bud mesenchyme, total protein was isolated from cultured MSCs in the presence and absence of the Notch inhibitor, N-(3,5-difluorophenylacetyl-L-alanyl)]-S-phenylglycine t-ButylEster (DAPT, Calbiochem; San Diego, Calif.), or directly from wild-type E11.5 whole limb-bud tissue, and performed western blot analyses using Notch1 and Notch2 antibodies that can detect the cleaved or active (NICD) form of the receptor. […]

limb-bud derived MSCs [1] = experiment: Limb-bud MSC micromass chondrogenic differentiation (Alcian blue staining, real-time RT-PCR); format: cell-based, mouse
Procedure: (§1) Limb-bud derived MSCs were isolated from E11.5 CD1 mouse embryos as previously described (Zhang et al., Bone 34:809-17 (2004)). For chondrogenic differentiation, MSCs were seeded in micromass (1×10^5 cells in […]) in 12-well plates for 1.5 hours before adding standard media, media containing DAPT (1 μM), or media containing Hes1 shRNA lentivirus. Cells were cultured for a time-course of 6 hours, 3, 5, and 7 days prior to harvest for cartilage staining (1% Alcian blue/3% glacial acetic acid) or total RNA isolations. Limb-bud derived MSCs were also cultured in monolayer for 21 days and treated with either osteogenic (10 nM dexamethasone; 50 μM ascorbic acid; 10 mM β-glycerolphosphate) or adipogenic medium (Millipore; Billerica, Mass.) in the presence and absence of DAPT. Fixed MSCs were stained for osteoblastic differentiation using an alkaline phosphatase stain (nitro blue tetrazolium chloride/5-bromo-4-chloro-3-indolyhosphate P-toluidine salt) or adipogenic differentiation using an Oil Red-O staining solution (0.36%). Total RNA was isolated from monolayer cultures at day 21 for use in real-time RT-PCR analyses.
(§2) Embryonic limb-bud tissues or micromass cultures were frozen in liquid nitrogen and then homogenized in Trizol Reagent (Invitrogen; Carlsbad, Calif.) via rendering through a 25-gauge needle and syringe. Total cellular RNA was extracted following the manufacture's protocol. RNA was quantified using a NanoDrop spectrophotometer (NanoDrop; Wilmington, Del.) and equal concentrations of total RNA were pooled for synthesis of cDNA. Total RNA (1 μg) was reverse transcribed using the iScript™ cDNA synthesis kit (Bio-Rad; Hercules, Calif.) according to the manufacture's instructions. Reverse transcribed cDNA was analyzed by real-time RT-PCR with mouse-specific primers for: Sox9, Runx2, Col2a1, Agc1, Col1a1, Ap, Oc, Pparγ, Jagged1, Jagged2, Delta-like1, Delta-like3, Delta-like4, Notch1, Notch2, Notch3, Notch4, Hes1, Hes3, Hes5, Hes7, Hey1, Hey2, HeyL, and CyclinD1. Primers were designed using Applied Biosystems software (Applied Biosystems; Foster City, Calif.). Sequences are available upon request. DNA amplification was achieved using the SYBR® Green PCR Master Mix (Applied Biosystems; Foster City, Calif.) and the RotorGene real-time DNA amplification system (Corbett Research; Sydney, Australia). Gene expression was normalized to β-actin expression levels and then normalized to control samples.
To determine the role of Notch signaling in MSCs, Notch loss-of-function assays were performed on E11.5 limb-bud derived MSC cultures using the Notch inhibitor, DAPT. […] The effect of DAPT was also assessed on the expression of the chondrogenic markers Sox9, Col2a1, and Agc1 via real-time RT-PCR.

limb-bud derived MSCs [2] = experiment: Limb-bud MSC osteogenic monolayer differentiation (alkaline phosphatase staining, real-time RT-PCR); format: cell-based, mouse; conditions: DAPT 1 μM, 21 days
Procedure: as §1
as §2, with “Sequences are available upon request. DNA amplification was achieved using the SYBR® Green PCR Master Mix (Applied Biosystems; Foster City, Calif.) and the RotorGene real-time DNA amplification system (Corbett Research; Sydney, Australia). Gene expression was normalized to β-actin expression levels and then normalized to control samples.” left out

limb-bud derived MSCs [3] = experiment: Limb-bud MSC adipogenic monolayer differentiation (Oil Red-O staining, real-time RT-PCR); format: cell-based, mouse; conditions: DAPT 1 μM, 21 days
Procedure: as §1
as §2, with “Sequences are available upon request. DNA amplification was achieved using the SYBR® Green PCR Master Mix (Applied Biosystems; Foster City, Calif.) and the RotorGene real-time DNA amplification system (Corbett Research; Sydney, Australia). Gene expression was normalized to β-actin expression levels and then normalized to control samples.” left out

Notch signaling in hMSCs = experiment: RBPjP-dependent Notch luciferase reporter in hMSCs cultured on Jag1 coated plates; format: cell-based, human
Procedure: This lentivirus expresses GFP allowing determination of infection efficiency after 24 hours and during multiple passages of the cells. […] A protocol for coating culture dishes with the recombinant Jag1 protein using 5 μg/ml, 10 μg/ml, and 15 μg/ml concentrations of Jag1 and 10 μg/ml concentration of IgG as controls was established. […] Next, to confirm that this Jag1 coating technology induced Notch signaling in hMSCs, hMSCs transfected with the RBPjP-dependent Notch luciferase reporter were cultured on 5 μg/ml, 10 μg/ml, and 15 μg/ml Jag1 and IgG coated plates.

hMSCs [4] = experiment: Real-time RT-PCR of Notch target and stem cell regulator genes in hMSCs on Jag1 coated plates; format: cell-based, human; conditions: Jag1 coated plates 10 μg/ml, passage 3 hMSCs, 24 hours
Procedure: (§3) To determine if Notch signaling can induce important regulators of stem cell maintenance, passage 3 hMSCs were cultured on Jag1 and IgG coated plates for 24 hours and isolated RNA for real-time RT-PCR analyses (FIG. 11B). […] Therefore, Jag1/Notch signaling regulated hMSC maintenance and expansion via this network of stem cell factors. Finally, the same culture system and passage 3 hMSCs were used to determine if Jag1 regulated the proliferation of hMSCs over a relatively short time interval. BrdU ELISA assays were performed for hMSCs cultured on Jag1 and IgG coated plates for 24 hours.

hMSCs [5] = experiment: BrdU ELISA proliferation assay of hMSCs on Jag1 coated plates; format: cell-based, human; conditions: passage 3 hMSCs, 24 hours, vs IgG
Procedure: as §3

| alkaline phosphatase staining (limb-bud derived MSCs [2]; osteogenic media) | expression of osteoblast marker genes Col1a1, AP, and Oc (limb-bud derived MSCs [2]; real-time RT-PCR) | luciferase activity of Notch reporter (Notch signaling in hMSCs; plates coated with 10 μg/ml Jag1, 5, 10 and 15 μg/ml compared, IgG control) | Compound | abundance of the cleaved Notch2 (NICD2) (cleaved Notch2 (NICD2)) | cartilage nodule formation (limb-bud derived MSCs [1]; 1 μM DAPT, micromass culture, Alcian blue) | Agc1 expression (limb-bud derived MSCs [1]; DAPT 1 μM, day 7, real-time RT-PCR) | Sox9, Col2a1, and Agc1 expression (limb-bud derived MSCs [1]; DAPT 1 μM, first 3-5 days of culture, vs untreated cultures, real-time RT-PCR) | limb-bud MSC differentiation (limb-bud derived MSCs [1]; continuous DAPT 1 μM vs vehicle, chondrogenic, osteogenic and adipogenic cultures (FIG. 2A-2C)) | osteoblastic differentiation of MSCs (limb-bud derived MSCs [2]; osteogenic media) | Oil Red-0 staining (limb-bud derived MSCs [3]; adipogenic media) | adipogenic differentiation of MSCs (limb-bud derived MSCs [3]; adipogenic media) | expression of the adipocyte marker gene Pparγ (limb-bud derived MSCs [3]; real-time RT-PCR) | hMSC growth, cell size, shape, cell survival on coated plates (Notch signaling in hMSCs; Jag1 coated plates) | Oct4 expression compared to Sox2 and Nanog (hMSCs [4]) | Hes1 expression over controls (hMSCs [4]; vs IgG) | expression of Oct4, Sox2, and Nanog (hMSCs [4]; vs IgG) | increase of BrdU incorporation as compared to controls (hMSCs [5]) |
| --- | --- | --- | --- | --- | --- | --- | --- | --- | --- | --- | --- | --- | --- | --- | --- | --- | --- |
| elevated alkaline phosphatase staining | significant increase | – | C[C@H](NC(=O)Cc1cc(F)cc(F)c1)C(=O)N[C@H](C(=O)OC(C)(C)C)c1ccccc1 [DAPT] | reduce the abundance of the cleaved Notch2 (NICD2) | significantly enhanced cartilage nodule formation | significantly reduced | enhanced | enhances limb-bud MSC differentiation without biasing lineage determination | enhanced normal osteoblastic differentiation | elevated Oil Red-0 staining | enhanced normal adipogenic differentiation | increase | – | – | – | – | – |
| – | – | maximal luciferase activity | Jag1: recombinant Jag1 protein, Notch ligand, coated on culture dishes to activate Notch signaling | – | – | – | – | – | – | – | – | – | no obvious changes in cell size, shape, or cell survival | only mildly enhanced | approximately 7 fold | induced the expression | more than 50% |
